# Reference: ChEMBL document CHEMBL1135079, “CCR5 antagonists: bicyclic isoxazolidines as conformationally constrained N-1-substituted pyrrolidines” (Bioorg Med Chem Lett, 2002)
# Key:
# [1] = target: C-C chemokine receptor type 5 (Homo sapiens, UniProt P51681); experiment: Ability to displace [125I]-labeled MIP-1alpha from the C-C chemokine receptor type 5 expressed on CHO cell membranes
# [2] = tested on: Human immunodeficiency virus 1; experiment: Antiviral activity against BAL strain of HIV using HeLa cell anti-infectivity assay; assay type: functional; conditions: Human immunodeficiency virus 1, HeLa
# Chain of C-C chemokine receptor type 5 (P51681 whole entry): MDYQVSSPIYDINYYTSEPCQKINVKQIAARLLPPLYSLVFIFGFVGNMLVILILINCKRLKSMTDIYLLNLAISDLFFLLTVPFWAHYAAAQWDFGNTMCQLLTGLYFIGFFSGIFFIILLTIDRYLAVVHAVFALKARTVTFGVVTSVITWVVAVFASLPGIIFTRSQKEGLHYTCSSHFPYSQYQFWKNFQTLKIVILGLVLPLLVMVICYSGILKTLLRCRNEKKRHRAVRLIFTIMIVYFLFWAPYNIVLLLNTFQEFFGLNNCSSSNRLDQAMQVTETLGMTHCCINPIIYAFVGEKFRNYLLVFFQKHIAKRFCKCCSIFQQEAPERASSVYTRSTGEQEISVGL
Structure (SMILES),IC50 [1],IC90 [2]
C=CCN(C(=O)OCc1ccc([N+](=O)[O-])cc1)C1CCN(C[C@@H]2[C@@H](c3ccccc3)CN3OC4(CCCCC4)C[C@@H]23)CC1,14 nM,–
CCN(C(=O)OCc1ccccc1)C1CCN(C[C@H]2CN3O[C@H](c4ccccc4)C[C@H]3[C@@H]2c2ccccc2)CC1,~27 nM,–
CCN(C(=O)OCc1ccccc1)C1CCN(C[C@@H]2[C@@H](c3ccccc3)CN3OC4(CCCCC4)C[C@@H]23)CC1,86 nM,–
c1ccc(C2CCN(C[C@H]3CN4O[C@H](c5ccccc5)C[C@H]4[C@@H]3c3ccccc3)CC2)cc1,27 nM,–
c1ccc(C2CCN(C[C@@H]3[C@@H](c4ccccc4)CN4O[C@H](c5ccccc5)C[C@@H]34)CC2)cc1,30 nM,–
CCN(C(=O)OCc1ccccc1)C1CCN(C[C@H]2CN3OC4(CCCCC4)C[C@H]3[C@@H]2c2ccccc2)CC1,5 nM,> 300 nM
CCN(C(=O)OCc1ccccc1)C1CCN(C[C@@H]2[C@@H](c3ccccc3)CN3O[C@H](c4ccccc4)C[C@@H]23)CC1,46 nM,–
c1ccc(C2CCN(C[C@@H]3[C@@H](c4ccccc4)CN4OC5(CCCCC5)C[C@@H]34)CC2)cc1,33 nM,–
C=CCN(C(=O)OCc1ccc([N+](=O)[O-])cc1)C1CCN(C[C@H]2CN3O[C@H](c4ccccc4)C[C@H]3[C@@H]2c2ccccc2)CC1,2.5 nM,300 nM
C=CCN(C(=O)OCc1ccc([N+](=O)[O-])cc1)C1CCN(C[C@@H]2[C@@H](c3ccccc3)CN3O[C@H](c4ccccc4)C[C@@H]23)CC1,6 nM,> 300 nM
C=CCN(C(=O)OCc1ccc([N+](=O)[O-])cc1)C1CCN(C[C@H]2CN3OC4(CCCCC4)C[C@H]3[C@@H]2c2ccccc2)CC1,0.13 nM,33 nM
c1ccc(CCCC2CCN(C[C@H]3CN4OC5(CCCCC5)C[C@H]4[C@@H]3c3ccccc3)CC2)cc1,8 nM,> 300 nM
c1ccc(C2CCN(C[C@H]3CN4OC5(CCCCC5)C[C@H]4[C@@H]3c3ccccc3)CC2)cc1,43 nM,–
C=CCN(C(=O)OCc1ccc([N+](=O)[O-])cc1)C1CCN(C[C@H]2CN(C(=O)C3CCCCC3)C[C@@H]2c2ccccc2)CC1,–,4 nM
c1ccc(CCCC2CCN(C[C@@H]3[C@@H](c4ccccc4)CN4O[C@H](c5ccccc5)C[C@@H]34)CC2)cc1,11 nM,–
c1ccc(CCCC2CCN(C[C@H]3CN4O[C@H](c5ccccc5)C[C@H]4[C@@H]3c3ccccc3)CC2)cc1,5 nM,> 300 nM
